# PubChem BioAssay (NCI)
#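 Grown in 96-well plates, cells were treated for 48 hours with each compound at five concentrations. Insufficient inhibition: endpoint recorded as highest concentration tested. GI50: concentration for 50% inhibition of growth. Definition used: TGI = concentration required for complete inhibition of growth.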
# What was measured:
# Test in all cases: NCI-60 cell line screen, 48 h
# 786-0 renal = system: 786-0 renal
# A498 renal = system: A498 renal
# A549 NSCLC = system: A549 NSCLC
# ACHN renal = system: ACHN renal
# BT-549 breast = system: BT-549 breast
# CAKI-1 renal = system: CAKI-1 renal
# CCRF-CEM leukemia = system: CCRF-CEM leukemia
# COLO 205 colon = system: COLO 205 colon
# DU-145 prostate = system: DU-145 prostate
# EKVX NSCLC = system: EKVX NSCLC
# HCC-2998 colon = system: HCC-2998 colon
# HCT-116 colon = system: HCT-116 colon
# HCT-15 colon = system: HCT-15 colon
# HL-60(TB) leukemia = system: HL-60(TB) leukemia
# HOP-62 NSCLC = system: HOP-62 NSCLC
# HOP-92 NSCLC = system: HOP-92 NSCLC
# HS 578T breast = system: HS 578T breast
# HT29 colon = system: HT29 colon
# IGROV1 ovarian = system: IGROV1 ovarian
# K-562 leukemia = system: K-562 leukemia
# KM12 colon = system: KM12 colon
# LOX IMVI melanoma = system: LOX IMVI melanoma
# M14 melanoma = system: M14 melanoma
# MALME-3M melanoma = system: MALME-3M melanoma
# MCF7 breast = system: MCF7 breast
# MDA-MB-231 breast = system: MDA-MB-231 breast
# MDA-MB-435 = system: MDA-MB-435
# MDA-N = system: MDA-N
# MOLT-4 leukemia = system: MOLT-4 leukemia
# NCI-H226 lung = system: NCI-H226 lung
# NCI-H23 lung = system: NCI-H23 lung
# NCI-H460 lung = system: NCI-H460 lung
# NCI-H522 lung = system: NCI-H522 lung
# NCI/ADR-RES ovarian = system: NCI/ADR-RES ovarian
# OVCAR-3 ovarian = system: OVCAR-3 ovarian
# OVCAR-4 ovarian = system: OVCAR-4 ovarian
# OVCAR-5 ovarian = system: OVCAR-5 ovarian
# OVCAR-8 ovarian = system: OVCAR-8 ovarian
# PC-3 prostate = system: PC-3 prostate
# RPMI-8226 leukemia = system: RPMI-8226 leukemia
# RXF 393 renal = system: RXF 393 renal
# SF-268 CNS = system: SF-268 CNS
# SF-295 CNS = system: SF-295 CNS
# SF-539 CNS = system: SF-539 CNS
# SK-MEL-2 melanoma = system: SK-MEL-2 melanoma
# SK-MEL-28 melanoma = system: SK-MEL-28 melanoma
# SK-MEL-5 melanoma = system: SK-MEL-5 melanoma
# SK-OV-3 ovarian = system: SK-OV-3 ovarian
# SN12C renal = system: SN12C renal
# SNB-19 CNS = system: SNB-19 CNS
# SNB-75 CNS = system: SNB-75 CNS
# SR leukemia = system: SR leukemia
# SW-620 colon = system: SW-620 colon
# T-47D breast = system: T-47D breast
# TK-10 renal = system: TK-10 renal
# U251 CNS = system: U251 CNS
# UACC-257 melanoma = system: UACC-257 melanoma
# UACC-62 melanoma = system: UACC-62 melanoma
# UO-31 renal = system: UO-31 renal
smiles,measurement,setting,value
O=C(Nc1ccccc1)c1cc2c(cc1Cl)Sc1nccn1S2(=O)=O,TGI,786-0 renal,71.4 µM
same,TGI,A498 renal,> 70.9 µM
same,TGI,A549 NSCLC,> 100 µM
same,TGI,ACHN renal,> 83.1 µM
same,TGI,BT-549 breast,60.7 µM
same,TGI,CAKI-1 renal,7.53 µM
same,TGI,CCRF-CEM leukemia,> 75.5 µM
same,TGI,COLO 205 colon,> 56.6 µM
same,TGI,DU-145 prostate,40.5 µM
same,TGI,EKVX NSCLC,60.5 µM
same,TGI,HCC-2998 colon,37.7 µM
same,TGI,HCT-116 colon,> 54.4 µM
same,TGI,HCT-15 colon,> 75.3 µM
same,TGI,HL-60(TB) leukemia,56.1 µM
same,TGI,HOP-62 NSCLC,> 59.8 µM
same,TGI,HOP-92 NSCLC,18.5 µM
same,TGI,HS 578T breast,> 84.4 µM
same,TGI,HT29 colon,> 75.6 µM
same,TGI,IGROV1 ovarian,> 72.1 µM
same,TGI,K-562 leukemia,> 100 µM
same,TGI,KM12 colon,54.4 µM
same,TGI,LOX IMVI melanoma,39 µM
same,TGI,M14 melanoma,> 58.2 µM
same,TGI,MALME-3M melanoma,74.3 µM
same,TGI,MCF7 breast,> 60 µM
same,TGI,MDA-MB-231 breast,> 81.2 µM
same,TGI,MDA-MB-435,42.2 µM
same,TGI,MDA-N,> 100 µM
same,TGI,MOLT-4 leukemia,> 69 µM
same,GI50,NCI-H226 lung,28.6 µM
same,TGI,NCI-H226 lung,> 100 µM
same,TGI,NCI-H23 lung,53.8 µM
same,TGI,NCI-H460 lung,> 60.6 µM
same,TGI,NCI-H522 lung,38.6 µM
same,TGI,NCI/ADR-RES ovarian,> 100 µM
same,TGI,OVCAR-3 ovarian,59.3 µM
same,TGI,OVCAR-4 ovarian,99.9 µM
same,TGI,OVCAR-5 ovarian,> 86.3 µM
same,TGI,OVCAR-8 ovarian,> 100 µM
same,TGI,PC-3 prostate,> 70.1 µM
same,TGI,RPMI-8226 leukemia,70.5 µM
same,TGI,RXF 393 renal,> 71.2 µM
same,TGI,SF-268 CNS,> 89.8 µM
same,TGI,SF-295 CNS,> 100 µM
same,TGI,SF-539 CNS,> 83.6 µM
same,TGI,SK-MEL-2 melanoma,58.3 µM
same,TGI,SK-MEL-28 melanoma,46.9 µM
same,TGI,SK-MEL-5 melanoma,31.1 µM
same,TGI,SK-OV-3 ovarian,> 100 µM
same,TGI,SN12C renal,> 100 µM
same,TGI,SNB-19 CNS,> 100 µM
same,TGI,SNB-75 CNS,63.7 µM
same,TGI,SR leukemia,> 73 µM
same,TGI,SW-620 colon,> 78.9 µM
same,TGI,T-47D breast,> 72.9 µM
same,TGI,TK-10 renal,> 100 µM
same,TGI,U251 CNS,> 71.7 µM
same,TGI,UACC-257 melanoma,53.7 µM
same,TGI,UACC-62 melanoma,38.4 µM
same,TGI,UO-31 renal,> 100 µM
O=c1c2ccccc2oc2c1ccc1ncccc12,TGI,786-0 renal,48.9 µM
same,TGI,A498 renal,25 µM
same,TGI,A549 NSCLC,22.2 µM
same,TGI,ACHN renal,23.1 µM
same,TGI,BT-549 breast,63 µM
same,TGI,CAKI-1 renal,34.5 µM
same,TGI,CCRF-CEM leukemia,> 100 µM
same,TGI,COLO 205 colon,94.4 µM
same,TGI,DU-145 prostate,59.5 µM
same,TGI,EKVX NSCLC,96.9 µM
same,TGI,HCC-2998 colon,> 100 µM
same,TGI,HCT-116 colon,45.2 µM
same,TGI,HCT-15 colon,> 100 µM
same,TGI,HL-60(TB) leukemia,> 100 µM
same,TGI,HOP-62 NSCLC,78.1 µM
same,TGI,HOP-92 NSCLC,59.3 µM
same,TGI,HS 578T breast,34.8 µM
same,TGI,HT29 colon,> 100 µM
same,TGI,IGROV1 ovarian,26.4 µM
same,TGI,K-562 leukemia,> 100 µM
same,TGI,KM12 colon,> 100 µM
same,TGI,LOX IMVI melanoma,43.8 µM
same,TGI,MALME-3M melanoma,52.2 µM
same,TGI,MCF7 breast,27.8 µM
same,TGI,MDA-MB-231 breast,> 100 µM
same,TGI,MDA-MB-435,> 100 µM
same,TGI,MDA-N,> 100 µM
same,TGI,MOLT-4 leukemia,> 100 µM
same,TGI,NCI-H226 lung,38.9 µM
same,TGI,NCI-H23 lung,> 100 µM
same,TGI,NCI-H460 lung,17 µM
same,TGI,NCI-H522 lung,59.1 µM
same,TGI,NCI/ADR-RES ovarian,36.3 µM
same,TGI,OVCAR-3 ovarian,89.6 µM
same,TGI,OVCAR-4 ovarian,46.1 µM
same,TGI,OVCAR-5 ovarian,16.1 µM
same,TGI,OVCAR-8 ovarian,> 100 µM
same,TGI,PC-3 prostate,> 100 µM
same,TGI,RPMI-8226 leukemia,> 100 µM
same,TGI,RXF 393 renal,44.6 µM
same,TGI,SF-268 CNS,78.2 µM
same,TGI,SF-295 CNS,45.9 µM
same,TGI,SF-539 CNS,53.3 µM
same,TGI,SK-MEL-2 melanoma,> 100 µM
same,TGI,SK-MEL-28 melanoma,> 100 µM
same,TGI,SK-MEL-5 melanoma,28 µM
same,TGI,SK-OV-3 ovarian,34.4 µM
same,TGI,SN12C renal,> 100 µM
same,TGI,SNB-75 CNS,95.5 µM
same,TGI,SR leukemia,> 100 µM
same,TGI,SW-620 colon,42 µM
same,TGI,T-47D breast,31.2 µM
same,TGI,TK-10 renal,32.6 µM
same,TGI,UACC-257 melanoma,70.6 µM
same,TGI,UACC-62 melanoma,73.6 µM
same,TGI,UO-31 renal,40.9 µM
